The results in this text go back to patent publication US6596772B1, “Phosphate mimics and methods of treatment using phosphatase inhibitors” (Sugen, Inc., priority 1999, dated 2003).

Test [1] concerns PTPs. Nature of the test: Direct comparison of R groups against the PTPs. It counts as biochemical, human. The note with it: change of the R group from CF3SO2NH—. The method, then:
(§1) The effect of the compounds on PTP was evaluated at 25° C. using pNPP or FDP as substrate. PTP was pre-incubated for fifteen minutes with various concentrations of compound. Substrate was then added at a fixed concentration (usually equal to the Km previously calculated). After 10 minutes, NaOH was added to stop the reaction. The hydrolysis of pNPP was followed at 410 nm on the Biotek Powerwave 200 microplate scanning spectrophotometer. The percent inhibition was calculated as follows: Percent Inhibition=[(control signal−compound signal)/control signal] ×100%. The IC50 was then determined by interpolation of a percent inhibition versus compound concentration plot.

For test [2], the target named is T1, PTP ZETA (Homo sapiens, UniProt P23471).
T1 construct: made in house; host or cells: E. coli BL-21 (pGEX 6P-1)
T1 sequence (P23471 1667-2028 limits assumed): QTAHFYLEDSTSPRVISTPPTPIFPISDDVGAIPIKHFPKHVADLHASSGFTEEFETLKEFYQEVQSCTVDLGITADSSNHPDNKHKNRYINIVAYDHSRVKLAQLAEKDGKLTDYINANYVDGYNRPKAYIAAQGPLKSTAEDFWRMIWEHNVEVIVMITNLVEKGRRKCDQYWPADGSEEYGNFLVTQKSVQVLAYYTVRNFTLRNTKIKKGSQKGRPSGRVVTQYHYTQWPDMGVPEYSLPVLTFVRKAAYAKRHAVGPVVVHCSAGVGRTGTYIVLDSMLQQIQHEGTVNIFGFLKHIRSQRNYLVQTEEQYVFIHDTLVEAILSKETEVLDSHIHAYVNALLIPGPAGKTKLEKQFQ
As to the kind of experiment: PTP IC50 assay, pNPP or FDP as substrate. The test is classed as biochemical. The conditions noted are these: 25° C. The method, then:
(§2) The following in vitro assay procedure is preferred to determine the level of activity and effect of the different compounds of the present invention on one or more of the PTPs. Similar assays can be designed along the same lines for any PTP using techniques well known in the art.
(§3) The catalytic assays described herein are performed in a 96-well format. The general procedure begins with the determination of PTP optimal pH using a three-component buffer system that minimizes ionic strength variations across a wide range of buffer pH. Next, the Michaelis-Menten constant, or Km, is determined for each specific substrate-PTP system. This Km value is subsequently used as the substrate reaction concentration for compound screening. Finally, the test PTP is exposed to varying concentrations of compound for fifteen minutes and allowed to react with substrate for ten minutes. The results are plotted as percent inhibition versus compound concentration and the IC50 interpolated from the plot.
(§4) All assays were performed using pNPP or FDP as substrate. The optimum pH was determined for each PTP used.
(§5) PTPase activity was assayed at 25° C. in a 100-μl reaction mixture containing an appropriate concentration of pNPP or FDP as substrate. The reaction was initiated by addition of the PTP and quenched after 10 min by addition of 50 μl of IN NaOH. The non-enzymatic hydrolysis of the substrate was corrected by measuring the control without the addition of the enzyme. The amount of p-nitrophenol produced was determined from the absorbance at 410 nm. To determine the kinetic parameter, Km, the initial velocities were measured at various substrate concentrations and the data were fitted to the Michaelis equation where velocity=(Vmax*[S])/(Km+[S]), and [S]=substrate reaction concentration.
as §1
(§6) Plasmids designed for bacterial GST-PTP fusion protein expression were derived by insertion of PCR-generated human PTP fragments into pGEX vectors (Pharmacia Biotech). Several of these constructs were then used to subclone phosphatases into pFastBac-1for expression in Sf-9 insect cells. Oligonucleotides used for the initial amplification of PTP genes are shown below. The cDNAs were prepared using the Gilbo BRL superscript preamplification system on RNAs purchased from Clontech.
The PTP Zeta cDNA was amplified from human placenta single strand cDNA (Clontech RNA) using the following oligonucleotides 5′oligo: 5′-[…]-3′ (SEQ ID NO: 10) 3′oligo: 5′-[…]-3′ (SEQ ID NO: 11) and subsequently ligated into pGEX 6P-1 Eco RI/Xho I sites.

Test [3] has as its target T2, PTP DEP1 (Homo sapiens, UniProt Q12913).
T2 construct: GST-fusion proteins encompassing the entire cytoplasmic domain was done by PCR; made in house; host or cells: E. coli BL-21 (pGEX 2T)
T2 sequence (Q12913 997-1337 limits assumed): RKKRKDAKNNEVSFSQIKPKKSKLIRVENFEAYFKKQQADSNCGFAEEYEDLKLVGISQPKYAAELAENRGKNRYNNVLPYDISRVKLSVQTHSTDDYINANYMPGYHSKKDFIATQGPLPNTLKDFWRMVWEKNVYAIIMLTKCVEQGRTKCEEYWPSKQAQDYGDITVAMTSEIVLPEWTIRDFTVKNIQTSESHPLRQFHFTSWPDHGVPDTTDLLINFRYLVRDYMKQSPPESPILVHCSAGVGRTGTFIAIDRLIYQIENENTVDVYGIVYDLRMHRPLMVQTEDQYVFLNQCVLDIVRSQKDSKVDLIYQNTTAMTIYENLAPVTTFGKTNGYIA
Nature of the test: PTP IC50 assay, pNPP or FDP as substrate. The test is classed as biochemical. The note with it: 25° C. The procedure:
as §2, §3, §4, §5, §1, §6
The full length DEP1 cDNA was isolated from a human mammary cDNA library (Clontech). The construction of GST-fusion proteins encompassing the entire cytoplasmic domain was done by PCR using the following oligos; 5′oligo: 5′-[…]-3′ (SEQ ID NO: 20) 3′oligo: 5′-[…]-3′ (SEQ ID NO: 21) It was subsequently ligated into the Eco RI/Bam H1 sites of pGEX 2T.

Test [4] concerns the target T3, PTP PEST (Homo sapiens, UniProt Q05209).
T3 construct: made in house; host or cells: E. coli BL-21 (pGEX 6P-1)
T3 sequence (Q05209 1-343 limits assumed): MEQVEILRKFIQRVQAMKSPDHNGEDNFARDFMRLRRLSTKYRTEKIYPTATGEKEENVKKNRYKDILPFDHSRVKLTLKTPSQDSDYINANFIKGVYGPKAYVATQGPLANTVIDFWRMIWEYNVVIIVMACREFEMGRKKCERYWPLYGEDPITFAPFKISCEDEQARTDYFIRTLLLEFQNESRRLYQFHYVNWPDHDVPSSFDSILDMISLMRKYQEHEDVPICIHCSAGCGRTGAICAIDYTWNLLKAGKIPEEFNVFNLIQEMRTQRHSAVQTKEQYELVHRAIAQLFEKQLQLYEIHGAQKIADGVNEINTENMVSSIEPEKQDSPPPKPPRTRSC
Nature of the test: PTP IC50 assay, pNPP or FDP as substrate. The conditions noted are these: 25° C. The test is classed as biochemical. The procedure:
as §2, §3, §4, §5, §1, §6
The PTP PEST CDNA was amplified from an HeLa cDNA library (Clonetech RNA) using the following oligonucleotides: 5′oligo: 5′-[…]-3′ (SEQ ID NO: 14) 3′oligo: 5′-[…]-3′ (SEQ ID NO: 15) It was subsequently ligated into the Eco RI/Xho I sites of pGEX 6P-1.

Turning to `CS(=O)(=O)Nc1ccc(Oc2ccc(Oc3ccc(NS(C)(=O)=O)cc3)cc2)cc1` [CH3SO2NH—], the “activity relative to the CF3SO2NH— compound” value in test [1] is “dramatic decrease in activity”.
Regarding `O=S(=O)(c1ccc(COCc2ccc(S(=O)(=O)C(F)(F)F)cc2)cc1)C(F)(F)F` [Example 1, Bis (4-trifluoromethylsulfonylbenzyl) ether], the 50% inhibitory concentration (IC50) (commonly the concentration that gives 50% inhibition) in test [2] is over 100 µM; in test [3], 24.2 µM; in test [4] it was over 100 µM.
For `O=S(=O)(c1ccc(COc2ccc(S(=O)(=O)C(F)(F)F)cc2)cc1)C(F)(F)F` [Example 2, 4-Trifluoromethylsulfonylbenzyl 4-trifluoromethylsulfonylphenyl ether], the concentration for half-maximal inhibition (IC50) in test [2] was over 100 µM; in test [3], 16.5 µM; in test [4], 25.6 µM.
In the same order, the values of `O=C(c1ccccc1)N(Cc1ccc(S(=O)(=O)C(F)(F)F)cc1)Cc1ccc(S(=O)(=O)C(F)(F)F)cc1` [Example 3, N,N-Bis(4-trifluoromethylsulfonylbenzyl)benzamide] are over 100 µM, 40.9 µM and over 100 µM.
As for `O=S(=O)(c1ccc(CCc2ccc(S(=O)(=O)C(F)(F)F)cc2)cc1)C(F)(F)F` [Example 4, 1,2-Bis(4-trifluoromethylsulfonylphenyl)ethane], the values for the half-maximal inhibitory concentration (IC50) in test [2], in test [3] and in test [4] were over 100 µM, 26.1 µM and over 100 µM, respectively.
For `O=C(NCc1ccc(S(=O)(=O)C(F)(F)F)cc1)c1ccc(S(=O)(=O)C(F)(F)F)cc1` [Example 5, N-(4-Trifluoromethylsulfonylbenzyl)-4-trifluoromethylsulfonylbenzamide], the half-inhibitory concentration (IC50) in test [2], in test [3] and in test [4] was over 100 µM in each case.
Turning to `O=C(NCc1ccc(S(=O)(=O)C(F)(F)F)cc1)c1ccccc1` [Example 6, N-(4-Trifluoromethylsulfonylbenzyl)benzamide], the IC50 in test [2], in test [3] and in test [4] was over 100 µM each time.
`O=S(=O)(Nc1ccc(CCc2ccc(NS(=O)(=O)C(F)(F)F)cc2)cc1)C(F)(F)F` [Example 66, 1,2-Bis(4-trifluoromethylsulfonamidophenyl)ethane]: the IC50 in test [2] was over 100 µM; in test [3], over 100 µM; in test [4], 13.3 µM.
In the case of `Cc1cc(NS(=O)(=O)C(F)(F)F)ccc1CCc1ccc(NS(=O)(=O)C(F)(F)F)cc1C` [Example 67, 1,2-Bis(2-methyl-4-trifluoromethylsulfonamidophenyl)ethane], the results for the IC50 in test [2], in test [3] and in test [4] were over 100 µM, 85.6 µM and 10.5 µM, respectively.
As for `CC(C)(COc1ccc(NS(=O)(=O)C(F)(F)F)cc1)COc1ccc(NS(=O)(=O)C(F)(F)F)cc1` [Example 68, 1,3-Bis(4-trifluoromethylsulfonamidophenoxy)-2,2-dimethylpropane], the IC50 in test [2] was over 100 µM; in test [3], 25 µM; in test [4], 9.33 µM.
Turning to `O=S(=O)(Nc1ccc(OCCCOc2ccc(NS(=O)(=O)C(F)(F)F)cc2)cc1)C(F)(F)F` [Example 69, 1,3-Bis(4-trifluoromethylsulfonamidophenoxy)propane], the figures for the IC50 in test [2], in test [3] and in test [4] were over 100 µM, over 100 µM and 7.86 µM, respectively.
With `O=S(=O)(Nc1ccc(OCCCCOc2ccc(NS(=O)(=O)C(F)(F)F)cc2)cc1)C(F)(F)F` [Example 70, 1,4-Bis(4-trifluoromethylsulfonamidophenoxy)butane], the values for the IC50 in test [2], in test [3] and in test [4] were over 100 µM, 24.5 µM and 6.75 µM, respectively.
For the compound `O=S(=O)(Nc1ccc(Oc2ccc(Oc3ccc(NS(=O)(=O)C(F)(F)F)cc3)cc2)cc1)C(F)(F)F` [Example 71, 1,4-Bis(4-trifluoromethylsulfonamidophenoxy)benzene], the IC50 in test [2] was determined as 64.3 µM; in test [3], 49 µM; in test [4], 0.98 µM.
Consider `Nc1ccc(Oc2ccc(Oc3ccc(N)cc3)cc2)cc1` [NH2], for which the “activity relative to the CF3SO2NH— compound” value in test [1] is “complete loss of activity”.
